Entries after “also recorded” stand apart in the source; their conditions may differ.
Experiments:
[1] = tested on: Pyramidenzellen des Hippokampus; experiment: Hippocampal slice ex vivo after 7 days of in vivo dosing: provocation with 4-aminopyridine; parameters: species or system Ratte; conditions: 500 mg/kg daily over 7 days in vivo, compared with placebo
Source text: Wirkungen von Hesperidin und Hesperetin auf die Erregbarkeit der Pyramidenzellen wurden im Hippokampus-Schnittpräparat der Ratte bestimmt. Die Analyse der Wirkungen erfolgte auf drei Ebenen. Zunächst wurde anhand der Applikation von Einzelreizen die normale Erregbarkeit überprüft und anschließend nach einer sog. "Theta-burst-Stimulation" die Auswirkungen auf die Langzeitpotenzierung gemessen. Im nächsten Schritt wurde versucht, die Wirkung von Krampf auslösenden Substanzen zu antagonisieren. […]
Dieselbe Versuchsanordnung wurde letztendlich noch einmal nach in vivo Applikation beider Substanzen in einer repetitiven Dosierung von 500 mg/kg täglich über 7 Tage im Vergleich zu Placebo angewandt (sog. "ex vivo" Design). Dabei sollte überprüft werden, ob eine repetitive Gabe zur Erregbarkeitsveränderungen der Pyramidenzellen des Hippokampus führt. […] Dieses Ergebnis ist auch ein Hinweis darauf, dass in vivo neben dem im Darm entstehenden Hesperetin auch genügend wirksames Hesperidin das Gehim erreicht. Gleichzeitig wird dadurch nochmals bestätigt, dass Hesperidin und Hesperetin ein unterschiedliches Wirkprofil haben.

[2] = tested on: Fischer-344 Ratten; experiment: Tele-Stereo-EEG (changes of EEG frequencies in freely moving rats); type: in vivo, Ratte
Method: Die Veränderungen der EEG-Frequenzen nach intraperitonealer Gabe von Salzlösung (Kontrolle) bzw. verschiedener Dosen von Hesperidin (10 bis 300 mg/kg Körpergewicht sowie oral 500 mg/kg) wurden bestimmt. Ebenso wurden verschiedene Dosierungen von Hesperetin (80-320 mg/kg i.p. sowie 500 mg/kg oral untersucht.
Die Untersuchungen wurden analog der durch W. Dimpfel beschriebenen Methode (Dimpfel W Preclinical data base of pharmaco-specific rat EEG fingerprints (Tele-Stereo-EEG). Eur J Med Res (2003) 8: 199-207) folgendermaßen durchgeführt: Zwölf männlichen erwachsenen Fischer-344 Ratten (Tag-Nacht konvertiert) wurden im Alter von 6 Monaten 4 bipolar konzentrische Elektroden zusammen mit einem Mikrostecker auf einer gemeinsamen Basisplatte implantiert. Der Stecker diente der Aufnahme eines 4-Kanal-Senders zur telemetrischen Übertragung der aus frontalem Kortex, Hippokampus, Striatum und Formatio Reticularis abgeleiteten Feldpotentiale. Die Signale wurden auf einem Computer System (Software "EEG-Analyse", Betriebssystem OS Science, Laborrechner "LabTeam" der Firma MediSyst, Linden, DE) in Echtzeit einer Fast-Fourier-Transformation unterworfen und die Leistungsdichtespektren jeweils über 60 Minuten gemittelt. Die Unterteilung der Spektren in 6 verschiedene Frequenzbereiche erlaubte die Erfassung pharmako-spezifischer Veränderungen in Bezug auf die jeweils vor Applikation gemessenen Vorwerre innerhalb dieser Frequenzbänder.
Zum Applikationsprotokoll der Substanzen: die Substanzen wurden i.p. 45 Minuten nach Beginn der Messungen (Vorwert) injiziert. Fünf Minuten später wurden die Messungen wieder gestartet, mindestens über die nächsten 5 Stunden kontinuierlich analysiert und in 60-minütigen Perioden zusammengefaßt. Die Testsubstanzen wurden in einer Dosierung von 10 bis 500 mg/kg appliziert. Die experimentelle Serie wurde mit der Injektion von Salzlösung (Kontrolle), die zu keiner auffälligen Änderung führte, begonnen.
Der statistische Vergleich der Versuche zu den Ergebnissen, die nach Gabe von Salzlösung gemessen wurde, erfolgte mit Hilfe einer multivariaten Analyse nach Ahrens und Läuter (siehe H. Ahrens, J. Läuter "Mehrdimensionale Varianzanalyse" (1974), Akademie Verlag, Berlin) auf der Basis der Veränderungen innerhalb der einzelnen Frequenzbänder in allen Hirnregionen als Variablen.

[3] = tested on: Pyramidenzellen im Hippokampus-Schnittpräparat; experiment: Hippocampal slice in vitro: antagonism of the 4-aminopyridine-induced change of excitability; type: cell-based, Ratte; conditions: superfused together with 4-Aminopyridin
Source text: (§1) Wirkungen von Hesperidin und Hesperetin auf die Erregbarkeit der Pyramidenzellen wurden im Hippokampus-Schnittpräparat der Ratte bestimmt. Die Analyse der Wirkungen erfolgte auf drei Ebenen. Zunächst wurde anhand der Applikation von Einzelreizen die normale Erregbarkeit überprüft und anschließend nach einer sog. "Theta-burst-Stimulation" die Auswirkungen auf die Langzeitpotenzierung gemessen. Im nächsten Schritt wurde versucht, die Wirkung von Krampf auslösenden Substanzen zu antagonisieren. In einer dritten Versuchsserie wurde die Substanz eine Woche lang appliziert und dann "ex vivo" die Änderung der Erregbarkeit auf eine Provokation mit der Krampf auslösenden Substanz 3-Aminopyridin (3-AP) gemessen.
(§2) Für die Durchführung dieser Studien wurden 30 erwachsene männliche CD-Ratten verwendet. Die Isolation des Hippokampus erfolgte an äthemarkotisierten und anschließend exsanguinierten Tieren.
Das Experiment selbst wurde in einer sog. "Base Unit" mit Haas Top" (Firma Medical Systems Corp., USA) bei 35 Grad Celsius durchgeführt. Der mit Hilfe peristaltischer Pumpen (Infusomat B. Braun Melsungen AG) superfundierte Hippokampus-Schnitt lag auf einem Stück Gaze. Eingeleitetes Carbogen hielt die erforderliche Sauerstoffzufuhr der Lösung aufrecht. Die Durchflussgeschwindigkeit betrug 200 ml/h. […]

[4] = tested on: Pyramidenzellen im Hippokampus-Schnittpräparat; experiment: Hippocampal slice in vitro: population spike after single stimuli and long-term potentiation after theta-burst stimulation; type: cell-based, Ratte; conditions: n=6 slices; for Langzeitpotenzierung durch TBS: theta-burst stimulation, 5 bis 60 µM for Hesperidin
Source text: as §1, §2
Das Experiment selbst wurde in einer sog. "Base Unit" mit Haas Top" (Firma Medical Systems Corp., USA) bei 35 Grad Celsius durchgeführt. Der mit Hilfe peristaltischer Pumpen (Infusomat B. Braun Melsungen AG) superfundierte Hippokampus-Schnitt lag auf einem Stück Gaze. Eingeleitetes Carbogen hielt die erforderliche Sauerstoffzufuhr der Lösung aufrecht. Die Durchflussgeschwindigkeit betrug 200 ml/h.
Die Stimulation der CA2-Region (Schaffer-Kollateralen) erfolgte unter Verwendung eines Reizgenerators (Laborcomputer Labteam der Fa. MediSyst GmbH, Linden, DE) über eine Isoliereinheit mit Hilfe einer bipolar konzentrischen Stahlelektrode (Rhodes Medical Systems, USA. Die Impulsbreite betrug 200 µs, die Stromstärke konstant 200 µA. Der Reizgenerator löste im Abstand von jeweils 20 Sekunden 4 Einzelreizungen aus, die im Schnitt insgesamt 4 Populationsspikes evozierten. Die Ableitung der Antwort erfolgte in der […] Region. Das System mittelte die Reizantwort der 4 Spike-Amplituden.
Dabei wurde der Schnitt zunächst mit Kontrolllösung superfundiert. […]

[5] = tested on: autosomaler dominanter nocturner Frontallappenepilepsie; experiment: Therapeutic trial in one patient with drug-resistant epilepsy; type: in vivo, Patientin
Source text: Um das Konzept auch am Patienten zu überprüfen, wurde einer jungen unter autosomaler dominanter nocturner Frontallappenepilepsie leidenden Patientin, die selbst in Gegenwart von 3 Gramm unterschiedlicher Antiepileptika weiterkrampfte (im Mittel 20 Anfälle pro Monat) täglich 1 Gramm Hesperidin abends vor dem Einschlafen oral über einen Zeitraum von 2 Monaten verabreicht. […] Das Ergebnis der Untersuchungen ist in Abb. 12 dokumentiert.

Row | Structure (SMILES) | durch 4-Aminopyridin provozierte Erhöhung der Erregbarkeit (ex vivo) [1] | Veränderungen der elektrischen Hirnaktivität ([2]; 320 mg/kg i.p., after 2 hours, frontal cortex) | EEG-Muster im Vergleich zu Referenzmedikamenten (Diskriminanzanalyse) ([2]; higher dose) | Veränderungen der elektrischen Hirnaktivität ([2]; i.p. single dose, low dose range) | EEG-Muster im Vergleich zu Referenzmedikamenten (Diskriminanzanalyse) ([2]; low doses) | Änderung der Erregbarkeit der Pyramidenzellen durch die Gegenwart von 4-Aminopyridin [3] | Veränderungen der Leistungsdichte in den einzelnen Hirnregionen ([2]; 20 mg/kg i.p.) | Veränderungen der Leistungsdichte in den einzelnen Hirnregionen ([2]; 40 mg/kg i.p.) | Veränderungen der Leistungsdichte in den einzelnen Hirnregionen ([2]; 300 mg/kg i.p., significant at least at P < 5%) | Veränderungen der Leistungsdichte in den einzelnen Hirnregionen ([2]; 80 und 160 mg/kg i.p., statistically significant pattern, seen over the 5 hours of the test) | Amplitude des Populationsspikes bei Einzelreizung ([4]; single stimuli, 5 bis 60 µM) | Langzeitpotenzierung durch TBS [4] | Ausprägung des alpha1 Fokus im Frontallappen (Nachuntersuchung) ([5]; 1 Gramm daily orally for 2 months) | Häufigkeit der Anfälle ([5]; 1 Gramm daily orally in the evening for 2 months, baseline on average 20 seizures per month under 3 g antiepileptics)
1 | COc1ccc([C@@H]2CC(=O)c3c(O)cc(O)cc3O2)cc1O [Hesperetin] | nicht jedoch in den mit Placebo oder Hesperetin behandelten Tieren | Zunahmen der delta und alpha2 Aktivität | dem klassischer Antikonvulsiva ähnlich | im niedrigen Dosisbereich dem nach Gabe von Hesperidin entsprach | wie es für die Applikation von Mitteln gegen Migräne und Schizophrenie (Metoprolol bzw. Haloperidol und Risperidon) typisch ist | nicht jedoch von Hesperetin vermindert |  |  |  |  |  |  |  | 
2 | COc1ccc([C@@H]2CC(=O)c3c(O)cc(O[C@@H]4O[C@H](CO[C@@H]5O[C@@H](C)[C@H](O)[C@@H](O)[C@H]5O)[C@@H](O)[C@H](O)[C@H]4O)cc3O2)cc1O [Hesperidin, Hesperetin 7-rhamnoglucosid] | Unterdrückung der durch 4-Aminopyridin provozierten Erhöhung |  | dem nach Gabe klassischer Antidepressiva |  | wie es für die Applikation von Mitteln gegen Migräne und Schizophrenie (Metoprolol bzw. Haloperidol und Risperidon) typisch ist | vermindert | Zunahmen der alpha1 und beta Aktivität | Zunahmen der elektrischen Leistung im alpha1 und beta Bereich | generellen Abfall der elektrischen Leistung | Abnahmen der elektrischen Leistung im delta, theta und alpha2 Bereich | Unterdrückung der Pyramidenzellaktivität nach Einzelreizung; also recorded: Konzentrations-abhängigen Abfall der Amplitude des Populationsspikes | Unterdrückung der Langzeitpotenzierung; also recorded: Konzentrations-abhängig unterdrückt | deutlich geringere Ausprägung des alphal Fokus im Frontallappen | um die Hälfte reduziert
3 | Fc1ccc([C@@H]2CCNC[C@H]2COc2ccc3c(c2)OCO3)cc1 [Paroxetin, reference compound] |  |  |  |  |  |  |  |  |  |  |  | unterdrückt die Langzeitpotenzierung |  | 

— patent publication EP1721613A1, “Hesperidin for the treatment of epilepsy, migraine, schizophrenia, depression and drug abuse” (priority 2005, dated 2006)
